Laboratory results published in patent publication US20250041377A1, “PHARMACEUTICAL USE” (ENLITISA (SHANGHAI) PHARMACEUTICAL CO., LTD., priority 2018, published 2025).
Where a SMILES comes first, the peptide text is derived from it. [ ]: non-standard residue; d: D form. Hyp = O=C(O)[CH]1C[CH](O)CN1

Experiments:
[1] = tested on: common cold; assay: Liquid spray to treat common cold; format: in vivo, human
Procedure: Compound B was dissolved in Injection water (WFI; from a TC-RO-0.25 T/h-2 water treatment system, Yangzhou Tiancheng Water Treatment Devices & Engineering Co., Ltd., Yangzhou, China). The concentration was 0.5 mg/mL. 5 mL was loaded into a plastic water spray bottle.
The enrolled subject in the study was inflicted with a common cold for 2 days prior to treatment. Other cold treatments were not used before treatment. The subject, who presented a cough, a sore throat and a loss of voice, was required to use the liquid spray (3 to 5 presses each time, in the morning and evening.

[2] = tested on: operation pain during laser surgery; assay: Liquid spray to relieve operational pain during laser surgery; format: in vivo, human
Procedure: The enrolled subject was required to use 1 mL of a liquid spray comprising the same formulation as that described in Example 14 above in a water spray bottle on half of their face before and after a lattice laser operation to remove of facial melanin.

With `CC(N)C(=O)NC(CCCCN)C(=O)N1CCCC1C(=O)NC(CO)C(=O)NC(Cc1ccc(O)cc1)C(=O)N1CC(O)CC1C(=O)N1CC(O)CC1C(=O)NC(C(=O)NC(Cc1ccc(O)cc1)C(=O)NC(CCCCN)C(=O)O)C(C)O` (stereo not drawn) [Compound B, Ala-Lys-Pro-Ser-Tyr-Hyp-Hyp-Thr-Tyr-Lys] (H-AKPSY[Hyp][Hyp]TYK-OH; configuration not given here) the throat pain ([1]; liquid spray 0.5 mg/mL in WFI, 3 to 5 presses morning and evening, after the first use) was “throat pain was relieved after the first use”, the “throat pain and voice” value ([1]; liquid spray 0.5 mg/mL, after the second use) was “throat was no longer painful and could speak” and the “pain during lattice laser operation” value ([2]; 1 mL liquid spray 0.5 mg/mL on half of face before and after operation) was “did not feel pain during the operation”. For the same molecule, the “pain after lattice laser operation” value ([2]; sprayed half of face, unsprayed half: pain lasted about 2 hours) was “felt no pain after the operation”.
